Legend:
Assay type in all cases: cell-based
[1] = test system: decarbamylase of Blastobacter sp. A 17 p-4; experiment: Substrate specificity of decarbamylase, cells of Blastobacter sp. A 17 p-4; conditions: 1% (w/v) substrate, 200 mM potassium phosphate, cell suspension, 24 hours at 30° C.
Method: For the determination of substrate specificity of decarbamylase of Comamonas sp. E 222 C and Blastobacter sp. A 17 p-4, these strains were cultured at 28° C. in the medium C (as described in Example 2) for 1 day (E 222 C) and 7 days (A 17 p-4). […] (E 222 C) or 50° C. (A 17 p-4).

[2] = test system: decarbamylase of Comamonas sp. E 222 C; experiment: Substrate specificity of decarbamylase, cells of Comamonas sp. E 222 C; conditions: cell suspension, 24 hours at 30° C.; for Substrate conversion, Comamonas sp. E 222 c (conversion to amino acids): 1% (w/v) substrate, 200 mM potassium phosphate
Method: For the determination of substrate specificity of decarbamylase of Comamonas sp. E 222 C and Blastobacter sp. A 17 p-4, these strains were cultured at 28° C. in the medium C (as described in Example 2) for 1 day (E 222 C) and 7 days (A 17 p-4). Three ml of the culture medium was centrifuged to separate the microorganism, which was suspended in 300 μl of a substrate solution (200 mM potassium phosphate, 1% (w/v) a substrate as listed below) and incubated for 24 hours at 30° C. (E 222 C) or 50° C. (A 17 p-4).

Comamonas sp. E 222 C = experiment: Promoters for the production of Comamonas sp. E 222 C decarbamylase; conditions: 0.15% (w/v) additive in medium D, 2 days at 28° C.; D-HPG from 35 mM C-D-HPG, 24 hours at 30° C.
Method: The strain was cultured in a nutrient medium D (1 g/l KH2 PO4, 1 g/l K2 HPO4, 0.3 g/l MgSO4 ·7H2 O, 3 g/l yeast extract, 3 g/l meat extract, 10 g/l glycerol, 2 g/l polypeptone; pH 7.0) for 2 days at 28° C. The culture medium additionally contained a substance as listed in FIG. 2 in a concentration of 0.15% (w/v).
One ml of the culture medium was centrifuged to collect the microorganism, which was suspended in 100 μl of a substrate solution (35 mM C-D-HPG, 200 mM potassium phosphate; pH 7.0). After 24 hours at 30° C., D-HPG was quantitated by HPLC according to the procedure described in Example 2.

[3] = test system: Blastobacter sp. A 17 p-4; experiment: Promoters for the production of Blastobacter sp. A 17 p-4 decarbamylase; conditions: for decarbamylase yield of Blastobacter sp. A 17 p-4, effect of metal ions: 2 mM metal ion plus 0.15% (w/v) uracil in medium D, 4 days at 28° C.; for decarbamylase yield of Blastobacter sp. A 17 p-4: 0.15% (w/v) additive in medium D, 3 days at 28° C., D-HPG formation at 40° C.
Method: The strain was cultured at 28° C. for 3 days in the medium D (as defined in Example 4) additionally containing 0.15% (w/v) of a substance as listed in FIG. 7. Then, D-HPG was formed in the same way as in Example 4 but that the reaction temperature was 40° C., and quantitated by HPLC.
In order to examine the effects of metal ions on the enzyme productivity, the strain was cultured at 28° C. for 4 days in the medium D additionally containing 0.15% (w/v) of uracil and 2 mM a metal ion as listed in FIG. 8. It was found by quantitating D-HPG that ions such as Fe^2+, Fe^3+, Li^+, Cs^+, Be^2+, Mg^2+, Mn^2+, Co^2+ and Al^3+ increased the decarbamylase yield.

Row | Structure (SMILES) | Substrate conversion, Blastobacter sp. A 17 p-4 (conversion to amino acids) [1] | Substrate conversion, Comamonas sp. E 222 c (conversion to amino acids) [2] | also measured
1 | CC1NC(=O)NC1=O (racemic) [DL-5-Methylhydantoin] | ++ (++: <50%) | - (-: 0%) | 
2 | O=C1NC(=O)C(c2ccccc2)N1 (racemic) [DL-5-Phenylhydantoin] | ++ (++: <50%) | - (-: 0%) | 
3 | O=C1NC(=O)C(c2ccc(O)cc2)N1 (racemic) [DL-5-p-Hydroxyphenylhydantoin] | ++ (++: <50%) | - (-: 0%) | 
4 | CSCCC(NC(N)=O)C(=O)O (racemic) [N-Carbamyl-DL-methionine, N-carbamyl-DL-methionine] | ++ (++: <50%) | ++ (++: <50%) | decarbamylase productivity of Comamonas sp. E 222 C (Comamonas sp. E 222 C): improved
5 | CCCCC(NC(N)=O)C(=O)O (racemic) [N-Carbamyl-DL-norleucine] | ++ (++: <50%) | ++ (++: <50%) | 
6 | CCCC(NC(N)=O)C(=O)O (racemic) [N-Carbamyl-DL-norvaline] | ++ (++: <50%) | ++ (++: <50%) | 
7 | C[C@@H](O)[C@H](NC(N)=O)C(=O)O (racemic) [N-Carbamyl-DL-threonine] | - (-: 0%) | + (+: <10%) | 
8 | [Al+3] [Al^3+] |  |  | decarbamylase yield of Blastobacter sp. A 17 p-4, effect of metal ions [3]: increased
9 | [Be+2] [Be^2+] |  |  | decarbamylase yield of Blastobacter sp. A 17 p-4, effect of metal ions [3]: increased
10 | [Co+2] [Co^2+] |  |  | decarbamylase yield of Blastobacter sp. A 17 p-4, effect of metal ions [3]: increased
11 | [Cs+] [Cs^+] |  |  | decarbamylase yield of Blastobacter sp. A 17 p-4, effect of metal ions [3]: increased
12 | N[C@@H](C(=O)O)c1ccccc1 [D-phenylglycine] |  |  | decarbamylase productivity of Comamonas sp. E 222 C (Comamonas sp. E 222 C): improved
13 | [Fe+2] [Fe^2+] |  |  | decarbamylase yield of Blastobacter sp. A 17 p-4, effect of metal ions [3]: increased
14 | [Li+] [Li^+] |  |  | decarbamylase yield of Blastobacter sp. A 17 p-4, effect of metal ions [3]: increased
15 | [Mg+2] [Mg^2+] |  |  | decarbamylase yield of Blastobacter sp. A 17 p-4, effect of metal ions [3]: increased
16 | [Mn+2] [Mn^2+] |  |  | decarbamylase yield of Blastobacter sp. A 17 p-4, effect of metal ions [3]: increased
17 | C[C@@H](NC(N)=O)C(=O)O [N-Carbamyl-D-alanine] | +++ (+++: <80%) | ++++ (++++: 100%) | 
18 | CC(C)C[C@@H](NC(N)=O)C(=O)O [N-Carbamyl-D-leucine] | +++ (+++: <80%) | ++++ (++++: 100%) | 
19 | NC(=O)N[C@@H](C(=O)O)c1ccc(O)cc1 [N-Carbamyl-D-p-hydroxyphenylglycine] | ++ (++: <50%) | +++ (+++: <80%) | 
20 | NC(=O)N[C@H](Cc1ccccc1)C(=O)O [N-Carbamyl-D-phenylalanine, N-carbamyl-D-phenylalanine] | +++ (+++: <80%) | ++++ (++++: 100%) | 
21 | NC(=O)N[C@@H](C(=O)O)c1ccccc1 [N-Carbamyl-D-phenylglycine] | +++ (+++: <80%) | +++ (+++: <80%) | 
22 | NC(=O)N[C@H](CO)C(=O)O [N-Carbamyl-D-serine] | - (-: 0%) | + (+: <10%) | 
23 | CC(C)[C@@H](NC(N)=O)C(=O)O [N-Carbamyl-D-valine] | +++ (+++: <80%) | ++++ (++++: 100%) | 
24 | CN(CC(=O)O)C(N)=O [N-Carbamyl-sarcosine] | - (-: 0%) | - (-: 0%) | 
25 | NC(=O)NC(CC(=O)O)C(=O)O (centres unmarked) [Ureidosuccinic acid] | - (-: 0%) | - (-: 0%) | 
26 | O=C1CCNC(=O)N1 [dihydrouracil] |  |  | decarbamylase yield of Blastobacter sp. A 17 p-4 [3]: increased
27 | O=c1cc[nH]c(=O)[nH]1 [uracil] |  |  | decarbamylase yield of Blastobacter sp. A 17 p-4 [3]: increased
28 | NC(N)=O [urea] |  |  | decarbamylase productivity of Comamonas sp. E 222 C (Comamonas sp. E 222 C): improved
29 | NC(=O)NCCC(=O)O [β-Ureidopropionic acid] | - (-: 0%) | ++++ (++++: 100%) | decarbamylase yield of Blastobacter sp. A 17 p-4 [3]: increased; decarbamylase productivity of Comamonas sp. E 222 C (Comamonas sp. E 222 C): improved; hydrolysis by Comamonas sp. E 222 C, in words [2]: could hydrolize

Reference: patent US5902736A, “Process for the production of D-α-amino acids by hydrolysis of the corresponding N-carbamyl derivative” (priority 1992, dated 1999)
